Test [1] addresses T1, first (BD1: amino acids K57-E168) bromodomain of BRD4 (Homo sapiens, UniProt O60885).
T1 construct: His-tagged first (BD1: amino acids K57-E168)
The experiment in a line: TR-FRET bromodomain binding assay, BRD4 BD1. The note with it: Ki calculated from IC50, probe Kd and probe concentration, read-out: TR-FRET Binding Ki: BRD4 (BDI_K57-E168). In short, it runs like this: (§1)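 His-tagged BRD4 bromodomain competed against an Alexa647-labeled BET-inhibitor probe by TR-FRET in 20 mM sodium phosphate pH 6.0, 50 mM NaCl, 1 mM EDTA, 0.01% Triton X-100, 1 mM DTT.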

The target of test [2] is T2, second (BD2: amino acids E352-E168) bromodomain of BRD4 (Homo sapiens, UniProt O60885).
T2 construct: protocol
Put plainly: TR-FRET bromodomain binding assay, BRD4 BD2. The note with it: Ki calculated from IC50, probe Kd and probe concentration, read-out: TR-FRET Binding Ki: BRD4 (BDII_E352-M457). In short, it runs like this:
as §1

Test [3] concerns breast cancer cell line MX-1. The experiment in a line: MX-1 cell line proliferation assay (3-day). The class given is cell-based. The note with it: Homo sapiens, MX1, MX-1 cells, Cell Titer Glo, read-out: Cellular proliferation: EC50. In short, it runs like this: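 MX-1 cells in RPMI/10% FBS, plated 5000/well overnight, then exposed to compound at final 3 to 0.0001 μM (3-fold series) for 3 days at 37° C. Cell Titer Glo luminescence normalized to DMSO-treated cells; EC50 from sigmoidal curve fit.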
In general terms: ATP-based viability assays read luminescence as a measure of living cells.

Where [4] appears, read: TR-FRET assay protocol (D, E or G) per compound.
[5] abbreviates: TR-FRET assay protocol (A-G, compound concentration range).

Results on 24 compounds are retold here after patent US9561231B2 (AbbVie Inc., priority 2012, dated 2017).

The structures appear in SMILES notation. Read-outs that look alike come from different tables or passages of the source.

As usually defined, the Ki is the equilibrium dissociation constant of an inhibitor or competing ligand from its target. Turning to `CCS(=O)(=O)Nc1ccc(Oc2ccc(F)cc2F)c(-c2cn(C)c(=O)cc2-c2ccc(C)s2)c1` [Example 407, N-{4-(2,4-difluorophenoxy)-3-[1-methyl-4-(5-methylthiophen-2-yl)-6-oxo-1,6-dihydropyridin-3-yl]phenyl}ethanesulfonamide], the Ki is 6.92 nM in test [1] (setting [4]) and 2.06 nM in test [2] (setting [4]). In addition, the EC50 in test [3] (72 hours with compound) is 72.3 nM.

For the compound `COc1cc(=O)n(C)nc1-c1ccccc1Oc1ccc(Cl)cc1` [Example 37, 6-[2-(4-chlorophenoxy)phenyl]-5-methoxy-2-methylpyridazin-3(2H)-one], the Ki was 1730 nM in test [1] (setting [5]) and 1790 nM in test [2] (setting [5]). Moreover, the EC50 in test [3] (72 h incubation) was determined as 10000 nM.

As for `CCS(=O)(=O)Nc1ccc(Oc2ccc(F)cc2F)c(-c2cn(C)c(=O)cc2-c2cnn(Cc3ccccc3)c2)c1` [Example 390, N-{3-[4-(1-benzyl-1H-pyrazol-4-yl)-1-methyl-6-oxo-1,6-dihydropyridin-3-yl]-4-(2,4-difluorophenoxy)phenyl}ethanesulfonamide], the results for the Ki in test [1] (setting [4]) and in test [2] (setting [4]) were 36.5 nM and 13.5 nM, respectively. Also, in test [3] (72 hours with compound), the EC50 was 79.8 nM.

On to `Cn1cc(-c2cc(NS(C)(=O)=O)ccc2Oc2ccccc2C#N)ccc1=O` [Example 237, N-[4-(2-cyanophenoxy)-3-(1-methyl-6-oxo-1,6-dihydropyridin-3-yl)phenyl]methanesulfonamide], for which the values for the inhibitory constant (Ki) in test [1] (setting [5]) and in test [2] (setting [5]) were 16.2 nM and 227 nM, respectively. Besides, the EC50 in test [3] (72 h incubation) was 1380 nM.

On to `COCc1ccc(-c2cc(=O)n(C)nc2-c2ccccc2Oc2ccccc2)cc1` [Example 78, 5-[4-(methoxymethyl)phenyl]-2-methyl-6-(2-phenoxyphenyl)pyridazin-3(2H)-one], for which the Ki in test [1] (setting [5]) is 435 nM; in test [2] (setting [5]), 211 nM. The EC50 in test [3] (72 h incubation) is more than 3000 nM.

As to `CCOc1cc(=O)n(C)cc1-c1cc(NS(=O)(=O)CC)ccc1Oc1ccc(Cl)cc1F` [Example 403, N-[4-(4-chloro-2-fluorophenoxy)-3-(4-ethoxy-1-methyl-6-oxo-1,6-dihydropyridin-3-yl)phenyl]ethanesulfonamide], the results for the Ki in test [1] (setting [4]) and in test [2] (setting [4]) were 14.7 nM and 1.38 nM, respectively. In test [3] (72 hours with compound), the EC50 came to 23.9 nM.

For the compound `C=CC#Cc1ccccc1Oc1ccc(S(=O)(=O)CC)cc1-c1cn(C)c(=O)cc1O` [Example 313, 5-{2-[2-(but-3-en-1-yn-1-yl)phenoxy]-5-(ethylsulfonyl)phenyl}-4-hydroxy-1-methylpyridin-2(1H)-one], the results for the Ki in test [1] (setting [5]) and in test [2] (setting [5]) were 754 nM and 55.2 nM, respectively. In addition, the EC50 in test [3] (72 h incubation) came out at 1330 nM.

As to `COc1cc(=O)n(C)nc1-c1cc(NS(=O)(=O)Cc2ccccc2)ccc1Oc1ccccc1` [Example 27, N-[3-(4-methoxy-1-methyl-6-oxo-1,6-dihydropyridazin-3-yl)-4-phenoxyphenyl]-1-phenylmethanesulfonamide], the Ki in test [1] (setting [5]) is 296 nM; in test [2] (setting [5]), 78.9 nM. Further, the EC50 in test [3] (72 h incubation) is 720 nM.

As for `COC(=O)CNc1cc(=O)n(C)nc1-c1ccccc1Oc1ccccc1` [Example 50, methyl N-[1-methyl-6-oxo-3-(2-phenoxyphenyl)-1,6-dihydropyridazin-4-yl]glycinate], the results for the Ki in test [1] (setting [5]) and in test [2] (setting [5]) were 2100 nM and 2420 nM, respectively. Further, the EC50 in test [3] (72 h incubation) came out at 9520 nM.

With `Cn1nc(-c2ccccc2Oc2ccccc2)c(-c2ccc(CO)cc2)cc1=O` [Example 79, 5-[4-(hydroxymethyl)phenyl]-2-methyl-6-(2-phenoxyphenyl)pyridazin-3(2H)-one], the Ki is 126 nM in test [1] (setting [5]) and 87.5 nM in test [2] (setting [5]). Besides, in test [3] (72 h incubation), the EC50 was 1870 nM.

Consider `CCS(=O)(=O)Nc1ccc(Oc2ccc(F)cc2F)c(-c2cn(C)c(=O)cc2OCC2CCN(C)C2)c1` (stereo not drawn) [Example 323, N-[4-(2,4-difluorophenoxy)-3-{1-methyl-4-[(1-methylpyrrolidin-3-yl)methoxy]-6-oxo-1,6-dihydropyridin-3-yl]phenyl}ethanesulfonamide], for which the figures for the Ki in test [1] (setting [5]) and in test [2] (setting [5]) were 150 nM and 101 nM, respectively. Besides, in test [3] (72 h incubation), the EC50 stood at 1140 nM.

On to `CC(C)S(=O)(=O)c1ccc(Oc2ccc(F)cc2F)c(-c2ccc(=O)n(C)c2)c1` [Example 364, 5-[2-(2,4-difluorophenoxy)-5-(propan-2-ylsulfonyl)phenyl]-1-methylpyridin-2(1H)-one], for which the Ki in test [1] (setting [5]) was 84.4 nM; in test [2] (setting [5]), 153 nM. For the same compound, in test [3] (72 h incubation), the EC50 was found to be 878 nM.

`COc1cc(=O)n(C)nc1-c1cc(NS(=O)(=O)CCC(F)(F)F)ccc1Oc1ccccc1` [Example 28, 3,3,3-trifluoro-N-[3-(4-methoxy-1-methyl-6-oxo-1,6-dihydropyridazin-3-yl)-4-phenoxyphenyl]propane-1-sulfonamide]: the Ki in test [1] (setting [5]) was 710 nM; in test [2] (setting [5]), 227 nM. In addition, the EC50 in test [3] (72 h incubation) came out at 7620 nM.

Turning to `CCOc1cc(=O)n(C)cc1-c1cc(S(=O)(=O)N2CCc3ccccc32)ccc1OCC1CC1` [Example 397, 5-[2-(cyclopropylmethoxy)-5-(2,3-dihydro-1H-indol-1-ylsulfonyl)phenyl]-4-ethoxy-1-methylpyridin-2(1H)-one], the Ki in test [1] (setting [4]) is 75.2 nM; in test [2] (setting [4]), 8.84 nM. Further, the EC50 in test [3] (72 hours with compound) came out at 86.6 nM.

As for `CCOc1cc(=O)n(C)cc1-c1cc(N(C)S(=O)(=O)Cc2ccccc2)ccc1Oc1ccc(F)cc1F` [Example 420, N-[4-(2,4-difluorophenoxy)-3-(4-ethoxy-1-methyl-6-oxo-1,6-dihydropyridin-3-yl)phenyl]-N-methyl-1-phenylmethanesulfonamide], the Ki is more than 238 nM in test [1] (setting [4]) and 22.1 nM in test [2] (setting [4]). The EC50 in test [3] (72 hours with compound) is 832 nM.

On to `CCCS(=O)(=O)Nc1ccc(Oc2ccc(F)cc2F)c(-c2cn(C)c(=O)cc2OCC)c1` [Example 349, N-[4-(2,4-difluorophenoxy)-3-(4-ethoxy-1-methyl-6-oxo-1,6-dihydropyridin-3-yl)phenyl]propane-1-sulfonamide], for which the Ki in test [1] (setting [5]) was 43.8 nM; in test [2] (setting [5]), 8.71 nM. In addition, the EC50 in test [3] (72 h incubation) stood at 151 nM.

Consider `CCS(=O)(=O)c1ccc(OCC2CC2)c(-c2cn(C)c(=O)cc2OC)c1` [Example 275, 5-[2-(cyclopropylmethoxy)-5-(ethylsulfonyl)phenyl]-4-methoxy-1-methylpyridin-2(1H)-one], for which the Ki is 55.9 nM in test [1] (setting [5]) and 119 nM in test [2] (setting [5]). Moreover, the EC50 in test [3] (72 h incubation) worked out at 223 nM.

For the compound `COc1cc(=O)n(C)cc1-c1cc(NS(C)(=O)=O)ccc1Oc1ccccc1` [Example 259, N-[3-(4-methoxy-1-methyl-6-oxo-1,6-dihydropyridin-3-yl)-4-phenoxyphenyl]methanesulfonamide], the Ki in test [1] (setting [5]) was 28.6 nM; in test [2] (setting [5]) it was 9.41 nM. Besides, the EC50 in test [3] (72 h incubation) came to 130 nM.

Turning to `CCS(=O)(=O)Nc1ccc(Oc2ccc(F)cc2F)c(-c2cn(C)c(=O)cc2-c2ccc(CN(C)C)cc2)c1` [Example 280, N-[4-(2,4-difluorophenoxy)-3-(4-{4-[(dimethylamino)methyl]phenyl}-1-methyl-6-oxo-1,6-dihydropyridin-3-yl)phenyl]ethanesulfonamide], the Ki was 3.8 nM in test [1] (setting [5]) and 1.73 nM in test [2] (setting [5]). For the same compound, the EC50 in test [3] (72 h incubation) came to 38.1 nM.

Consider `CCOC(=O)c1cccc(-c2cc(=O)n(C)nc2-c2ccccc2Oc2ccccc2)c1` [Example 59, ethyl 3-[1-methyl-6-oxo-3-(2-phenoxyphenyl)-1,6-dihydropyridazin-4-yl]benzoate], for which the inhibitory constant (Ki) was 9790 nM in test [1] (setting [5]) and 2110 nM in test [2] (setting [5]). Besides, the EC50 in test [3] (72 h incubation) was more than 30000 nM.

As to `CCOc1cc(=O)n(C)cc1-c1cc(CS(C)(=O)=O)ccc1Oc1ccc(F)cc1F` [Example 370, 5-{2-(2,4-difluorophenoxy)-5-[(methylsulfonyl)methyl]phenyl}-4-ethoxy-1-methylpyridin-2(1H)-one], the Ki in test [1] (setting [5]) is 52.7 nM; in test [2] (setting [5]) it was 39.5 nM. Further, the EC50 in test [3] (72 h incubation) amounted to 135 nM.

Regarding `Cn1cc(-c2cc(NS(=O)(=O)CC(=O)O)ccc2Oc2ccccc2)ccc1=O` [Example 226, {[3-(1-methyl-6-oxo-1,6-dihydropyridin-3-yl)-4-phenoxyphenyl]sulfamoyl}acetic acid], the Ki in test [1] (setting [5]) is 271 nM; in test [2] (setting [5]), 1130 nM. Also, the EC50 in test [3] (72 h incubation) was 10000 nM.

In the case of `CCS(=O)(=O)Nc1ccc(Oc2ccc(F)cc2F)c(-c2cn(C)c(=O)cc2-c2ccc(N3CCOCC3)cc2)c1` [Example 284, N-[4-(2,4-difluorophenoxy)-3-{1-methyl-4-[4-(morpholin-4-yl)phenyl]-6-oxo-1,6-dihydropyridin-3-yl]phenyl}ethanesulfonamide], the Ki in test [1] (setting [5]) is 5.75 nM; in test [2] (setting [5]), 1.84 nM. For the same compound, the EC50 in test [3] (72 h incubation) was 44.3 nM.

As to `CCOc1cc(=O)n(C)cc1-c1cc(NS(=O)(=O)CC)ccc1Oc1c(F)cc(Cl)cc1F` [Example 404, N-[4-(4-chloro-2,6-difluorophenoxy)-3-(4-ethoxy-1-methyl-6-oxo-1,6-dihydropyridin-3-yl)phenyl]ethanesulfonamide], the Ki was 11.8 nM in test [1] (setting [4]) and 1.43 nM in test [2] (setting [4]). In addition, in test [3] (72 hours with compound), the EC50 is 24.7 nM.
